Data taken from publication PMC11597089, “Kratom Alkaloids: A Blood–Brain Barrier Specific Membrane Permeability Assay-Guided Isolation and Cyclodextrin Complexation Study” (Molecules, 2024).

How the values were obtained:
Type in all cases: physicochemical
[1] = ACE complex stability, MePIP-β-CD; settings: mono-6^A-(N-methyl-piperidine)-β-CD, positively charged, 30 mM phosphate buffer pH 7.4, 25 °C
Protocol: (§1) To investigate the CD complexation behavior of the four kratom alkaloids, we aimed to develop an ACE method for a systematic comparative study. […] To ensure sufficient buffer capacity and to avoid excessive current and Joule heat generation, the buffer concentration was set to 30 mM, and the applied voltage was 15 kV.
(§2) The ACE experiments were performed by using Agilent 7100 and HP^3DCE instruments (Agilent Technologies, Waldbronn, Germany). Untreated fused silica capillaries (total length of 48.5 cm, effective length of 40 cm, inner diameter of 50 μm) were purchased from Agilent Technologies. The new capillaries were conditioned with a 1 M NaOH wash for 1 h, followed by a 30 min wash each with 0.1 M NaOH and purified water. Prior to all runs, the capillary was preconditioned by rinsing with background electrolyte for 3 min. During the measurements, 30 mM phosphate buffer at pH 7.4 (30 mM Na2HPO4-NaOH) was used. The background electrolyte contained CDs at various concentrations. Stock solutions of the studied kratom alkaloids (mitragynine, paynantheine, speciogynine, speciociliatine) were prepared separately in methanol (1 mg/mL), and, right before the measurements, appropriate dilutions with purified water were used to prepare the sample solutions, applying 0.1% DMSO as the electroosmotic flow (EOF) marker. The samples were injected hydrodynamically at 40 mbar for 3 s. The positive polarity voltage was set to 15 kV, and the capillary was set to 25 °C. The electropherograms were recorded at four wavelengths (200 nm, 210 nm, 215 nm, and 220 nm), and the data were evaluated at 215 nm. In each case, three parallel measurements were performed. The measurements were evaluated using Origin and CEval software (v. 0.6i3).
(§3) In order to determine the complex stability constants that characterized the strength of the complexes, the first step was to determine the effective mobility of the analyte at specific CD concentrations. Triangular peaks caused by electromigration dispersion are often observed in ACE measurements.
(§4) Assuming a 1:1 complexation ratio and that the equilibrium CD concentration is almost equal to the total CD concentration, a relationship between the effective mobility relative to the EOF and the complex stability constant can be described by Function (4) (4) μeff=μA+μACDKstabCD/1+KstabCD where µeff is the effective mobility of the analyte, µA and µACD are the free and complexed analyte mobilities, [CD] is the concentration of the selector, and Kstab is the complex stability constant.
(§5) In order to calculate the exact, apparent, averaged complex stability constant values, viscosity correction and ionic strength correction were used.

[2] = ACE complex stability, HDMS-β-CD; settings: heptakis-(2,3-O-dimethyl, 6-O-sulfo)-β-CD, 30 mM phosphate buffer pH 7.4, 25 °C
Protocol: as §1, §2, §3, §4, §5

[3] = ACE complex stability, PYR-β-CD; settings: 6-monodeoxy-6-pyrrolidine-β-CD, positively charged, 30 mM phosphate buffer pH 7.4, 25 °C
Protocol: as §1, §2, §3, §4, §5

[4] = ACE complex stability, CM-γ-CD; settings: carboxymethylated-γ-CD DS~4, 30 mM phosphate buffer pH 7.4, 25 °C
Protocol: as §1, §2, §3, §4, §5

[5] = ACE complex stability, HS-β-CD; settings: heptakis-(6-O-sulfo)-β-CD, 30 mM phosphate buffer pH 7.4, 25 °C
Protocol: as §1, §2
as §3, with “measurements. […]” for “measurements.”

[6] = ACE complex stability, α-CD; settings: 30 mM phosphate buffer pH 7.4, 25 °C, 15 kV, 215 nm
Protocol: as §1, §2, §3, §4, §5

[7] = ACE complex stability, Succ-β-CD; settings: succinyl-β-CD DS~6, 30 mM phosphate buffer pH 7.4, 25 °C
Protocol: as §1, §2, §3, §4, §5

[8] = ACE complex stability, MePYR-β-CD; settings: mono-6^A-(N-methyl-pyrrolidine)-β-CD, positively charged, 30 mM phosphate buffer pH 7.4, 25 °C
Protocol: as §1, §2, §3, §4, §5

[9] = ACE complex stability, HP-γ-CD; settings: hydroxypropylated-γ-CD DS~3, 30 mM phosphate buffer pH 7.4, 25 °C
Protocol: as §1, §2
as §3, with “measurements. […]” for “measurements.”

[10] = ACE complex stability, CE-β-CD; settings: carboxyethylated-β-CD DS~3, 30 mM phosphate buffer pH 7.4, 25 °C
Protocol: as §1, §2, §3, §4, §5

[11] = ACE complex stability, SBE-β-CD DS~4; settings: sulfobutyl-ether-β-CD DS~4, 30 mM phosphate buffer pH 7.4, 25 °C
Protocol: as §1, §2, §3, §4, §5

[12] = ACE complex stability, PIP-β-CD; settings: 6-monodeoxy-6-piperidine-β-CD, positively charged, 30 mM phosphate buffer pH 7.4, 25 °C
Protocol: as §1, §2, §3, §4, §5

[13] = ACE complex stability, ODMS-γ-CD; settings: octakis-(2,3-O-dimethyl, 6-O-sulfo)-γ-CD, 30 mM phosphate buffer pH 7.4, 25 °C
Protocol: as §1, §2, §3, §4, §5

C=C[C@H]1CN2CCc3c([nH]c4cccc(OC)c34)[C@@H]2C[C@@H]1/C(=C\OC)C(=O)OC [Paynantheine, paynantheine]
complex stability constant (Kstab) with MePIP-β-CD [1]: < 10 M⁻¹ | complex stability constant (Kstab) with HDMS-β-CD [2]: 135 ± 14 M⁻¹ | complex stability constant (Kstab) with PYR-β-CD [3]: < 10 M⁻¹ | complex stability constant (Kstab) with CM-γ-CD [4]: 180 ± 20 M⁻¹ | complex stability constant (Kstab) with HS-β-CD [5]: 575 ± 35 M⁻¹ | complex stability constant (Kstab) with α-CD [6]: 20 ± 2 M⁻¹ | complex stability constant (Kstab) with Succ-β-CD [7]: 360 ± 30 M⁻¹ | complex stability constant (Kstab) with MePYR-β-CD [8]: < 10 M⁻¹ | complex stability constant (Kstab) with HP-γ-CD [9]: 325 ± 50 M⁻¹ | complex stability constant (Kstab) with CE-β-CD [10]: 625 ± 40 M⁻¹ | complex stability constant (Kstab) with SBE-β-CD DS~4 [11]: 830 ± 50 M⁻¹ | complex stability constant (Kstab) with PIP-β-CD [12]: < 10 M⁻¹ | complex stability constant (Kstab) with ODMS-γ-CD [13]: 280 ± 25 M⁻¹

CC[C@@H]1CN2CCc3c([nH]c4cccc(OC)c34)[C@H]2C[C@@H]1/C(=C\OC)C(=O)OC [Speciociliatine, speciociliatine]
complex stability constant (Kstab) with MePIP-β-CD [1]: < 10 M⁻¹ | complex stability constant (Kstab) with HDMS-β-CD [2]: 105 ± 12 M⁻¹ | complex stability constant (Kstab) with PYR-β-CD [3]: < 10 M⁻¹ | complex stability constant (Kstab) with CM-γ-CD [4]: 120 ± 12 M⁻¹ | complex stability constant (Kstab) with HS-β-CD [5]: 850 ± 30 M⁻¹ | complex stability constant (Kstab) with α-CD [6]: 22 ± 3 M⁻¹ | complex stability constant (Kstab) with Succ-β-CD [7]: 470 ± 35 M⁻¹ | complex stability constant (Kstab) with MePYR-β-CD [8]: < 10 M⁻¹ | complex stability constant (Kstab) with HP-γ-CD [9]: 220 ± 25 M⁻¹ | complex stability constant (Kstab) with CE-β-CD [10]: 160 ± 10 M⁻¹ | complex stability constant (Kstab) with SBE-β-CD DS~4 [11]: 670 ± 60 M⁻¹ | complex stability constant (Kstab) with PIP-β-CD [12]: < 10 M⁻¹ | complex stability constant (Kstab) with ODMS-γ-CD [13]: 230 ± 15 M⁻¹

CC[C@H]1CN2CCc3c([nH]c4cccc(OC)c34)[C@@H]2C[C@@H]1/C(=C\OC)C(=O)OC [Speciogynine, speciogynine]
complex stability constant (Kstab) with MePIP-β-CD [1]: < 10 M⁻¹ | complex stability constant (Kstab) with HDMS-β-CD [2]: 30 ± 3 M⁻¹ | complex stability constant (Kstab) with PYR-β-CD [3]: < 10 M⁻¹ | complex stability constant (Kstab) with CM-γ-CD [4]: 140 ± 12 M⁻¹ | complex stability constant (Kstab) with HS-β-CD [5]: 645 ± 30 M⁻¹ | complex stability constant (Kstab) with α-CD [6]: 23 ± 5 M⁻¹ | complex stability constant (Kstab) with Succ-β-CD [7]: 840 ± 80 M⁻¹ | complex stability constant (Kstab) with MePYR-β-CD [8]: < 10 M⁻¹ | complex stability constant (Kstab) with CE-β-CD [10]: 375 ± 25 M⁻¹ | complex stability constant (Kstab) with SBE-β-CD DS~4 [11]: 610 ± 60 M⁻¹ | complex stability constant (Kstab) with PIP-β-CD [12]: < 10 M⁻¹ | complex stability constant (Kstab) with ODMS-γ-CD [13]: 250 ± 15 M⁻¹

mitragynine
complex stability constant (Kstab) with MePIP-β-CD [1]: < 10 M⁻¹ | complex stability constant (Kstab) with HDMS-β-CD [2]: 175 ± 7 M⁻¹ | complex stability constant (Kstab) with PYR-β-CD [3]: < 10 M⁻¹ | complex stability constant (Kstab) with CM-γ-CD [4]: 200 ± 10 M⁻¹ | complex stability constant (Kstab) with α-CD [6]: 25 ± 2 M⁻¹ | complex stability constant (Kstab) with Succ-β-CD [7]: 375 ± 20 M⁻¹ | complex stability constant (Kstab) with MePYR-β-CD [8]: < 10 M⁻¹ | complex stability constant (Kstab) with HP-γ-CD [9]: 230 ± 35 M⁻¹ | complex stability constant (Kstab) with CE-β-CD [10]: 210 ± 20 M⁻¹ | complex stability constant (Kstab) with SBE-β-CD DS~4 [11]: 550 ± 35 M⁻¹ | complex stability constant (Kstab) with PIP-β-CD [12]: < 10 M⁻¹ | complex stability constant (Kstab) with ODMS-γ-CD [13]: 80 ± 7 M⁻¹
